Results reported in patent US20250074910A1, “MENIN INHIBITOR AND USE THEREOF” (HITGEN INC., priority 2021, published 2025).

Biological target: Menin/MLL-4-43 peptide interaction (Homo sapiens (Human), UniProt O00255)
Assay: Menin-MLL interaction inhibitory activity assay (fluorescence polarization competition)
Type: binding
Details: FITC-MLL4-43-peptide, Menin recombinant protein
In short: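 Menin (8 nM solution) was preincubated 15 min with compound, then FITC-MLL4-43 peptide (10 nM solution) was added and shaken for 60 min at 25 °C. The buffer was 50 mM Tris pH 7.5, 50 mM NaCl, 1 mM DTT. IC50 was derived from fluorescence polarization read at 485/520 nm.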

Chain of Menin/MLL-4-43 peptide interaction (O00255 whole entry, species assumed): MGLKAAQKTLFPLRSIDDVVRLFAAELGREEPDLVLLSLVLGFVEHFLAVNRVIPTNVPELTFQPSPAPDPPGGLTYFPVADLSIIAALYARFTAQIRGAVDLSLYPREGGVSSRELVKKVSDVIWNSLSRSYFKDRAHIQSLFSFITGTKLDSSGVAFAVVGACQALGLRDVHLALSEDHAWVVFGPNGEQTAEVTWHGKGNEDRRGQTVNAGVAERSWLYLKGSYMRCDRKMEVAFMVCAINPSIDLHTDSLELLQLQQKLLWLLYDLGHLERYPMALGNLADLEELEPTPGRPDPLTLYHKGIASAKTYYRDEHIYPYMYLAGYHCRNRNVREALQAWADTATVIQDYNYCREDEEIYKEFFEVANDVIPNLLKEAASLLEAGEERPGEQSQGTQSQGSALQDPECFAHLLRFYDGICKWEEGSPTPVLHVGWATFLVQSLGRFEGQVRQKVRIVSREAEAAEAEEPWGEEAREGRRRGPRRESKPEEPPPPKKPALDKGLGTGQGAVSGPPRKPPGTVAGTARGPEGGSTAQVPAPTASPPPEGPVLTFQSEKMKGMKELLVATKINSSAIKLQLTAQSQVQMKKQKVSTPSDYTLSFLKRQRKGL

Row | Structure (SMILES) | IC50 [nM]
1 | CCN(C(=O)c1cc(F)ccc1Oc1nncnc1N1CC2(CCN(C[C@H]3CC[C@]4(CC3)C[C@H](COC)C(=O)N4)CC2)C1)C(C)C [Example 37-1] | 12.9
2 | CCN(C(=O)c1cc(F)ccc1Oc1nncnc1N1CC2(CCN(C[C@H]3CC[C@]4(CC3)C[C@@H](COC)C(=O)N4)CC2)C1)C(C)C [Example 37-2] | 3.3
3 | CC1C[C@]2(CC[C@@H](CN3CCC4(CC3)CN(c3ncnnc3Oc3ccc(F)cc3C(=O)N(C(C)C)C(C)C)C4)CC2)NC1=O (stereo partly shown) [Example 41-1] | 10.8
4 | CCN(C(=O)c1cc(F)ccc1Oc1nncnc1N1CC2(CCN(C[C@H]3CC[C@]4(CC3)CC3(CCOCC3)C(=O)N4)CC2)C1)C(C)C [Example 45] | 2.5

Test system: MV4-11
Assay: Cell proliferation inhibition (CellTiter-Glo), MV4-11
Type: cell-based
Details: Homo sapiens, MV4-11, 72 h, MV4-11 cells
In short: (§1)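 IC50 values come from dose-response fitting of CellTiter-Glo luminescence after 72-168 h compound exposure (final 1 nM-10 μM) at 37° C and 5% CO2, with 5,000-20,000 cells plated per well.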

Row | Structure (SMILES) | GI50 [nM]
5 | CCN(C(=O)c1cc(F)ccc1Oc1nncnc1N1CC2(CCN(C[C@H]3CC[C@]4(CC3)CC(COC)(COC)C(=O)N4)CC2)C1)C(C)C [Example 19] | 13.2
6 | CCN(C(=O)c1cc(F)ccc1Oc1nncnc1N1CC2(CCN(C[C@H]3CC[C@]4(CC3)C[C@H](COC)C(=O)N4)CC2)C1)C(C)C [Example 37-1] | 88.3
7 | CCN(C(=O)c1cc(F)ccc1Oc1nncnc1N1CC2(CCN(C[C@H]3CC[C@]4(CC3)C[C@@H](COC)C(=O)N4)CC2)C1)C(C)C [Example 37-2] | 15.2
8 | CC1C[C@]2(CC[C@@H](CN3CCC4(CC3)CN(c3ncnnc3Oc3ccc(F)cc3C(=O)N(C(C)C)C(C)C)C4)CC2)NC1=O (stereo partly shown) [Example 41-1] | 25.5
9 | CCN(C(=O)c1cc(F)ccc1Oc1nncnc1N1CC2(CCN(C[C@H]3CC[C@]4(CC3)CC3(CCOCC3)C(=O)N4)CC2)C1)C(C)C [Example 45] | 12.7

Test system: MOLM-13
Assay: Cell proliferation inhibition (CellTiter-Glo), MOLM-13
Type: cell-based
Details: Homo sapiens, MOLM-13, 168 h, MOLM-13 cells
Description: Test Example 2: Test of the Inhibitory Ability of Menin-MLL Interaction Inhibitors on Cell Proliferation
The inhibitory ability of the compounds of the present disclosure on the proliferation of tumor cell lines (including cell lines containing MLL fusion protein such as MV4-11, MOLM-13, THP-1 and NOMO-1, control cell lines without MLL fusion protein such as HL-60, K562 and MOLM-16, and cell lines containing NPM1 mutation such as OCI-AML3) was evaluated by using the cell viability analysis method. The cells were plated in 96-well plates at a certain concentration (e.g., 5,000-20,000 cells/well), and then an equal volume of culture medium containing 2 times the final concentration of the test compound (the final concentration ranging 10 from 1 nM to 10 μM) was added. The plates were placed in an incubator and cultured at 37° C. and 5% CO2 for 72-168 h. Before the test, an equal volume of CellTiter-Glo® Luminescent reagent was added, and the plate was incubated at room temperature for 10 min before detection using an ELISA reader (BMG LABTECH). The data were analyzed using GraphPad Prism software to obtain the IC50 value and compound fitting curve. The control compound 1 was prepared by referring to the method of Example 64 in WO2017214367.

Row | Structure (SMILES) | GI50 [nM]
10 | CCN(C(=O)c1cc(F)ccc1Oc1nncnc1N1CC2(CCN(C[C@H]3CC[C@]4(CC3)CC(COC)(COC)C(=O)N4)CC2)C1)C(C)C [Example 19] | 33.1
11 | CCN(C(=O)c1cc(F)ccc1Oc1nncnc1N1CC2(CCN(C[C@H]3CC[C@]4(CC3)C[C@H](COC)C(=O)N4)CC2)C1)C(C)C [Example 37-1] | 354
12 | CCN(C(=O)c1cc(F)ccc1Oc1nncnc1N1CC2(CCN(C[C@H]3CC[C@]4(CC3)C[C@@H](COC)C(=O)N4)CC2)C1)C(C)C [Example 37-2] | 46.5
13 | CC1C[C@]2(CC[C@@H](CN3CCC4(CC3)CN(c3ncnnc3Oc3ccc(F)cc3C(=O)N(C(C)C)C(C)C)C4)CC2)NC1=O (stereo partly shown) [Example 41-1] | 52.7
14 | CCN(C(=O)c1cc(F)ccc1Oc1nncnc1N1CC2(CCN(C[C@H]3CC[C@]4(CC3)CC3(CCOCC3)C(=O)N4)CC2)C1)C(C)C [Example 45] | 54.1

Test system: OCI-AML3
Assay: Cell proliferation inhibition (CellTiter-Glo), OCI-AML3 (NPM1 mutation)
Type: cell-based
Details: Homo sapiens, OCI-AML-3, 168 h, OCI-AML3 cells
In short: as §1

Row | Structure (SMILES) | GI50 [nM]
15 | CCN(C(=O)c1cc(F)ccc1Oc1nncnc1N1CC2(CCN(C[C@H]3CC[C@]4(CC3)CC(COC)(COC)C(=O)N4)CC2)C1)C(C)C [Example 19] | 28.5
16 | CCN(C(=O)c1cc(F)ccc1Oc1nncnc1N1CC2(CCN(C[C@H]3CC[C@]4(CC3)C[C@H](COC)C(=O)N4)CC2)C1)C(C)C [Example 37-1] | 183
17 | CCN(C(=O)c1cc(F)ccc1Oc1nncnc1N1CC2(CCN(C[C@H]3CC[C@]4(CC3)C[C@@H](COC)C(=O)N4)CC2)C1)C(C)C [Example 37-2] | 40.9
18 | CC1C[C@]2(CC[C@@H](CN3CCC4(CC3)CN(c3ncnnc3Oc3ccc(F)cc3C(=O)N(C(C)C)C(C)C)C4)CC2)NC1=O (stereo partly shown) [Example 41-1] | 64.1
19 | CCN(C(=O)c1cc(F)ccc1Oc1nncnc1N1CC2(CCN(C[C@H]3CC[C@]4(CC3)CC3(CCOCC3)C(=O)N4)CC2)C1)C(C)C [Example 45] | 48.4

Test system: not listed separately
Assay: Stability in mouse liver microsomes
Type: in vitro ADME
Details: liver microsomes, pH 7.4, 0.5 mg/mL microsomal protein, 1.00 μM compound, NADPH, read-out: Half life T1/2, mouse liver microsomes
Description: (§2) Test Example 3: Test of Stability of Compounds in Liver Microsome
(§3) Test purpose: To determine the stability of some of the compounds of the present disclosure in mouse, dog and human liver microsomes by LC-MS/MS method.
(§4) Test materials: The test drugs were in-house prepared example compounds of the present disclosure; the positive reference compound SNDX-5613 was prepared by the method of Example 253 in patent WO2017214367; the control compound 1 was prepared by the method of Example 64 in WO2017214367; liver microsomes were purchased from CORNING.
(§5) The total volume of each incubation system was approximately 45 μL, and the medium was 100 mM phosphate buffer (PBS, pH 7.4), including liver microsomal protein at a final concentration of 0.5 mg/mL, 1.00 μM compound and 2.00 mM NADPH, and the organic phase content was <1%. Incubation was performed in a 37° C. incubator, and 135 μL of ice-cold acetonitrile was added after 0, 5, 15, 30 and 60 min of reaction to terminate the reaction. The positive control group was incubated with 1.00 μM Ketanserin, 0.5 mg/mL liver microsomal protein and 2.00 mM NADPH in a 37° C. incubator for 0, 5, 15, 30 and 60 min respectively, and then 135 μL of ice-cold acetonitrile was added to terminate the reaction. The 96-well plates were shaken at 600 rpm for 10 min and then centrifuged at 4700 rpm at 4° C. for 15 min. 80 μL of supernatant was mixed with 320 μL of pure water, and the remaining amount of the compound was detected by LC-MS/MS method. The in vitro half life (T½) and intrinsic clearance (CLint) were calculated according to the following formula:
(§6) Intrinsic clearance (Clint)=(0.693/T1/2)×(1/liver microsome concentration)×conversion factor. k is the linear regression slope of the remaining percentage of the ln compound-incubation time.

Row | Structure (SMILES) | half-life at 1 μM [h]
20 | CCN(C(=O)c1cc(F)ccc1Oc1nncnc1N1CC2(CCN(C[C@H]3CC[C@]4(CC3)CC(COC)(COC)C(=O)N4)CC2)C1)C(C)C [Example 19] | > 2
21 | CCN(C(=O)c1cc(F)ccc1Oc1nncnc1N1CC2(CCN(C[C@H]3CC[C@]4(CC3)C[C@H](COC)C(=O)N4)CC2)C1)C(C)C [Example 37-1] | > 2
22 | CCN(C(=O)c1cc(F)ccc1Oc1nncnc1N1CC2(CCN(C[C@H]3CC[C@]4(CC3)C[C@@H](COC)C(=O)N4)CC2)C1)C(C)C [Example 37-2] | > 2
23 | CCN(C(=O)c1cc(F)ccc1Oc1nncnc1N1CC2(CCN(C[C@H]3CC[C@]4(CC3)CC3(CCOCC3)C(=O)N4)CC2)C1)C(C)C [Example 45] | > 2

Test system: not listed separately
Assay: Stability in human liver microsomes
Type: in vitro ADME
Details: human, liver microsomes, pH 7.4, Human; 0.5 mg/mL microsomal protein, 1.00 μM compound, NADPH; read-out: Half life T1/2, human liver microsomes
Description: as §2, §3, §4, §5, §6

Row | Structure (SMILES) | half-life at 1 μM [h]
24 | CCN(C(=O)c1cc(F)ccc1Oc1nncnc1N1CC2(CCN(C[C@H]3CC[C@]4(CC3)CC(COC)(COC)C(=O)N4)CC2)C1)C(C)C [Example 19] | 1.35
25 | CCN(C(=O)c1cc(F)ccc1Oc1nncnc1N1CC2(CCN(C[C@H]3CC[C@]4(CC3)C[C@H](COC)C(=O)N4)CC2)C1)C(C)C [Example 37-1] | > 2
26 | CCN(C(=O)c1cc(F)ccc1Oc1nncnc1N1CC2(CCN(C[C@H]3CC[C@]4(CC3)C[C@@H](COC)C(=O)N4)CC2)C1)C(C)C [Example 37-2] | 1.09
27 | CCN(C(=O)c1cc(F)ccc1Oc1nncnc1N1CC2(CCN(C[C@H]3CC[C@]4(CC3)CC3(CCOCC3)C(=O)N4)CC2)C1)C(C)C [Example 45] | 0.618

Test system: not listed separately
Assay: Stability in dog liver microsomes
Type: in vitro ADME
Details: dog, liver microsomes, pH 7.4, Dog; 0.5 mg/mL microsomal protein, 1.00 μM compound, NADPH; read-out: Half life T1/2, dog liver microsomes
Description: as §2, §3, §4, §5, §6

Row | Structure (SMILES) | half-life at 1 μM [h]
28 | CCN(C(=O)c1cc(F)ccc1Oc1nncnc1N1CC2(CCN(C[C@H]3CC[C@]4(CC3)CC(COC)(COC)C(=O)N4)CC2)C1)C(C)C [Example 19] | > 2
29 | CCN(C(=O)c1cc(F)ccc1Oc1nncnc1N1CC2(CCN(C[C@H]3CC[C@]4(CC3)C[C@H](COC)C(=O)N4)CC2)C1)C(C)C [Example 37-1] | > 2
30 | CCN(C(=O)c1cc(F)ccc1Oc1nncnc1N1CC2(CCN(C[C@H]3CC[C@]4(CC3)C[C@@H](COC)C(=O)N4)CC2)C1)C(C)C [Example 37-2] | 1.5
31 | CCN(C(=O)c1cc(F)ccc1Oc1nncnc1N1CC2(CCN(C[C@H]3CC[C@]4(CC3)CC3(CCOCC3)C(=O)N4)CC2)C1)C(C)C [Example 45] | 1.53

Biological target: hERG potassium ion channel (Homo sapiens (Human), UniProt Q12809)
Sequence (Q12809 whole entry): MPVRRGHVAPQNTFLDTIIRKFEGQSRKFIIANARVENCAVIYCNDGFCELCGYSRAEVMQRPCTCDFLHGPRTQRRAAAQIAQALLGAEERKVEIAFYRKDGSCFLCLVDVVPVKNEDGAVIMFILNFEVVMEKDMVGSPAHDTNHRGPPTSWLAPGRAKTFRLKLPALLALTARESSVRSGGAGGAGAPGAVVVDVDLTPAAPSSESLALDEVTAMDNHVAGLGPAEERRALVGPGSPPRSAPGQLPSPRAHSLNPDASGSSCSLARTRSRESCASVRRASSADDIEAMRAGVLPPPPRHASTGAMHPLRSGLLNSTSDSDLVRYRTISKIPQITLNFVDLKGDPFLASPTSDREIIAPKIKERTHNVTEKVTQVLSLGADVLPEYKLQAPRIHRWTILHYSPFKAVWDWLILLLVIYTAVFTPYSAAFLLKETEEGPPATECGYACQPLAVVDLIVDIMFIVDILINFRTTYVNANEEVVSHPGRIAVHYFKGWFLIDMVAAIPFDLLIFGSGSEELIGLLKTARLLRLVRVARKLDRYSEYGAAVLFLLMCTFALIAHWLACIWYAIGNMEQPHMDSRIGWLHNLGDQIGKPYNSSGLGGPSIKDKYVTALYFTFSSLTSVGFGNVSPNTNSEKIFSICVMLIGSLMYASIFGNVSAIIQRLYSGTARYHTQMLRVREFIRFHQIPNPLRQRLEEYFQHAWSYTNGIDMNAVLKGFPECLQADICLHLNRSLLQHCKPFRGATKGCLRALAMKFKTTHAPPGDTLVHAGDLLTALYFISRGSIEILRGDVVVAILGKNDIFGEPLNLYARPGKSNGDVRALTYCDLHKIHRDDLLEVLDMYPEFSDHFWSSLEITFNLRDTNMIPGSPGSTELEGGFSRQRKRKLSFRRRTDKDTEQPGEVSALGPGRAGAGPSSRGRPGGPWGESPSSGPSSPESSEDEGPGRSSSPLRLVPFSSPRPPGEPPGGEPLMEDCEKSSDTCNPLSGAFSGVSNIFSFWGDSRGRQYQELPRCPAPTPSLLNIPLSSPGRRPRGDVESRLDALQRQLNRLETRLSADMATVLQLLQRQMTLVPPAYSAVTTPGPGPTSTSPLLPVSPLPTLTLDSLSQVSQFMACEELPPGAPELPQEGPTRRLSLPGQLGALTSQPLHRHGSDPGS
Assay: hERG potassium channel effect test (manual patch clamp, HEK293 cells overexpressing hERG)
Type: cell-based
Details: human, HEK293 cells overexpressing hERG potassium ion channels; 30 μm; read-out: Average inhibition rate of hERG current at the highest compound tested concentration
Description: Test Example 6: hERG Potassium Channel Effect Test
The hERG inhibition test was performed on some of the example compounds of the present disclosure using the manual electrophysiological patch clamp method. The cell line was derived from HEK293 cells that overexpressed hERG potassium ion channels. The specific experimental protocol was developed by PharmaCore Labs with reference to literature published in peer-reviewed journals and was performed by PharmaCore Labs in accordance with its standard experimental operating procedures. The highest test concentration was 30 μM.

Row | Structure (SMILES) | inhibition at 30 μM [%]
32 | CCN(C(=O)c1cc(F)ccc1Oc1nncnc1N1CC2(CCN(C[C@H]3CC[C@]4(CC3)CC(COC)(COC)C(=O)N4)CC2)C1)C(C)C [Example 19] | 12.8
33 | CCN(C(=O)c1cc(F)ccc1Oc1nncnc1N1CC2(CCN(C[C@H]3CC[C@]4(CC3)C[C@H](COC)C(=O)N4)CC2)C1)C(C)C [Example 37-1] | 13.2
34 | CC1C[C@]2(CC[C@@H](CN3CCC4(CC3)CN(c3ncnnc3Oc3ccc(F)cc3C(=O)N(C(C)C)C(C)C)C4)CC2)NC1=O (stereo partly shown) [Example 41-1] | 13.2

Same assay, conditions: manual patch clamp, highest test concentration 30 μM

Row | Structure (SMILES) | IC50 [nM]
35 | CCN(C(=O)c1cc(F)ccc1Oc1nncnc1N1CC2(CCN(C[C@H]3CC[C@]4(CC3)CC(COC)(COC)C(=O)N4)CC2)C1)C(C)C [Example 19] | > 30000
36 | CCN(C(=O)c1cc(F)ccc1Oc1nncnc1N1CC2(CCN(C[C@H]3CC[C@]4(CC3)C[C@H](COC)C(=O)N4)CC2)C1)C(C)C [Example 37-1] | > 30000
37 | CC1C[C@]2(CC[C@@H](CN3CCC4(CC3)CN(c3ncnnc3Oc3ccc(F)cc3C(=O)N(C(C)C)C(C)C)C4)CC2)NC1=O (stereo partly shown) [Example 41-1] | > 30000
